Laboratory results as given in ChEMBL document CHEMBL6134767, “Advances in antibacterial agents for Mycobacterium fortuitum” (2025).
Values after ≈ are worked out from the molar mass of the structure shown.

tested on: Mycolicibacterium fortuitum; test: Antibacterial activity against Mycobacterium fortuitum; type: functional

SMILES | MIC [µM]
CCOC(=O)/C=C/C(=O)c1ccc(C(C)(C)C)cc1 | 15.4 (≈ 4 µg/mL)
CC(=O)O[C@@H]1[C@@H](OC(C)=O)[C@@H](O)[C@H](OC[C@]2(C)[C@@H](O)C[C@H](O)[C@]3(C)[C@H]4CC=C5[C@@H]6C[C@](C)(C(=O)O[C@@H]7O[C@@H](C)[C@H](O)[C@@H](O)[C@H]7O)CC[C@]6(C)CC[C@@]5(C)[C@]4(C)CC[C@@H]23)O[C@H]1C | 27.9 (≈ 24.2 µg/mL)
O=C1C(=S)N(c2ccccc2)c2ccccc21 | 63 (≈ 15.1 µg/mL)
Nc1ccc(-c2nc3cc(-c4ccc5[nH]c(-c6ccc(N)cc6)nc5c4)ccc3[nH]2)cc1 | 19.2 (≈ 8 µg/mL)
N=C(N)N1N=C(/C=C/c2ccc(Cl)cc2)CC1c1ccc(Cl)cc1 (stereo not drawn) | 0.43 (≈ 0.154 µg/mL)
COc1cc(O)cc(/C=C/c2cc3ccccc3s2)c1 | 56.7 (≈ 16 µg/mL)
CC(=O)O[C@@H]1[C@@H](OC(C)=O)[C@@H](O)[C@H](OC[C@]2(C)[C@@H](O)C[C@H](O)[C@]3(C)[C@H]4CC=C5[C@@H]6C[C@](C)(C(=O)O)CC[C@]6(C)CC[C@@]5(C)[C@]4(C)CC[C@@H]23)O[C@H]1C | 17.1 (≈ 12.3 µg/mL)
OCCCCCCCCN=C=S | 20 (≈ 3.74 µg/mL)
CCOC(=O)/C=C\C(=O)c1ccc(C(C)(C)C)cc1 | 30.7 (≈ 8 µg/mL)
CCOC(=O)/C=C/C(=O)c1cc2ccccc2s1 | 61.5 (≈ 16 µg/mL)
CC(=O)O[C@@H]1[C@@H](O)[C@@H](O)[C@H](OC[C@]2(C)[C@@H](O)C[C@H](O)[C@]3(C)[C@H]4CC=C5[C@@H]6C[C@](C)(C(=O)O)CC[C@]6(C)CC[C@@]5(C)[C@]4(C)CC[C@@H]23)O[C@H]1C | 29.3 (≈ 19.8 µg/mL)

Further lines, results first:

MIC [µM] | SMILES
0.44 (≈ 0.154 µg/mL) | COc1ccc(/C=C/C2=NN(C(=N)N)C(c3ccc(OC)cc3)C2)cc1 (stereo not drawn)
0.89 (≈ 0.312 µg/mL) | COc1ccccc1/C=C/C1=NN(C(=N)N)C(c2ccccc2OC)C1 (stereo not drawn)
0.49 (≈ 0.156 µg/mL) | Cc1ccccc1/C=C/C1=NN(C(=N)N)C(c2ccccc2C)C1 (stereo not drawn)
39.7 (≈ 12.5 µg/mL) | C[C@H](NC(=O)c1cc([N+](=O)[O-])cc([N+](=O)[O-])c1)c1ccccc1
15.8 (≈ 8.02 µg/mL) | COc1cc(Cc2cc(-c3ccc(Cl)cc3)n(-c3ccc(Cl)cc3)c2C)ccc1N1CCNCC1
16.8 (≈ 8.02 µg/mL) | Cc1c(Cc2ccc(N3CCNCC3)cn2)cc(-c2ccc(Cl)cc2)n1-c1ccc(Cl)cc1
> 10.3 | C[C@H](OC(=O)c1cc([N+](=O)[O-])cc([N+](=O)[O-])c1)c1ccccc1
3.2 (≈ 1.51 µg/mL) | CC1(C)[C@@H](O)C[C@H](O)[C@]2(C)[C@H]3CC=C4[C@@H]5C[C@](C)(C(=O)O)CC[C@]5(C)CC[C@@]4(C)[C@]3(C)CC[C@@H]12
4.94 (≈ 1.56 µg/mL) | C[C@@H](OC(=O)c1cc([N+](=O)[O-])cc([N+](=O)[O-])c1)c1ccccc1
5.31 (≈ 2.5 µg/mL) | COc1cc(/C=C/C2=NN(C(=N)N)C(c3cc(OC)c(OC)c(OC)c3)C2)cc(OC)c1OC (stereo not drawn)
1.27 (≈ 0.4 µg/mL) | C[C@@H](NC(=O)c1cc([N+](=O)[O-])cc([N+](=O)[O-])c1)c1ccccc1
7.35 (≈ 4 µg/mL) | Cc1c(Cc2ccc(N3CCNCC3)cc2C(F)(F)F)cc(-c2ccc(Cl)cc2)n1-c1ccc(Cl)cc1
63 (≈ 11.2 µg/mL) | CN1C(=S)C(=O)c2ccccc21
32 (≈ 7.02 µg/mL) | CCCCN1C(=S)C(=O)c2ccccc21
0.54 (≈ 0.157 µg/mL) | N=C(N)N1N=C(/C=C/c2ccccc2)CC1c1ccccc1 (stereo not drawn)

tested on: Mycolicibacterium fortuitum; test: Antimycobacterial activity against Mycobacterium fortuitum ATCC 35931 assessed as reduction in bacterial growth; type: functional

SMILES | MIC [µM]
CCN(CC)CCCCOc1cc2oc3cc(OCCCCN(CC)CC)c(OC)c(CC=C(C)C)c3c(=O)c2c(OCCCCN(CC)CC)c1CC=C(C)C | 15.8 (≈ 12.5 µg/mL)
CC(C)N(CCOc1ccc(C(c2ccc(Cl)cc2)c2cccs2)cc1)C(C)C (stereo not drawn) | 29.3 (≈ 12.5 µg/mL)
CC(=O)c1ccc2c3c4c(c(O)cc(C)c4c(O)c2c1O)C(=O)c1c(O)cc(C)cc1-3 | 0.12 (≈ 0.0497 µg/mL)
C[n+]1ccc(-c2c3nc(c(-c4cc[n+](C)cc4)c4ccc([nH]4)c(-c4cc[n+](C)cc4)c4ccc([nH]4)c(-c4cc[n+](C)cc4)c4nc2C=C4)C=C3)cc1 [TMPYP4] | 50
CCN(CC)CCOc1ccc(C(c2ccc(F)cc2)c2cccs2)cc1 (stereo not drawn) | 16.3 (≈ 6.25 µg/mL)
CC(C)N(CCOc1ccc(C(c2ccc(F)cc2)c2cccs2)cc1)C(C)C (stereo not drawn) | 15.2 (≈ 6.26 µg/mL)
O=S(=O)(O)c1ccc(-c2c3nc(c(-c4ccc(S(=O)(=O)O)cc4)c4ccc([nH]4)c(-c4ccc(S(=O)(=O)O)cc4)c4nc(c(-c5ccc(S(=O)(=O)O)cc5)c5ccc2[nH]5)C=C4)C=C3)cc1 | 100 (≈ 93.5 µg/mL)
COc1cc(OC)c2c(ccc3cc(O)c(O)cc32)c1 | 92.5 (≈ 25 µg/mL)

Further lines, results first:

MIC [µM] | SMILES
3.81 (≈ 1.56 µg/mL) | Fc1ccc(C(c2ccc(OCCN3CCCCCC3)cc2)c2cccs2)cc1 (stereo not drawn)
7.67 (≈ 3.13 µg/mL) | COc1ccc(C(c2ccc(OCCN3CCCCC3)cc2)c2cccs2)cc1 (stereo not drawn)
7.9 (≈ 3.12 µg/mL) | Fc1ccc(C(c2ccc(OCCN3CCCCC3)cc2)c2cccs2)cc1 (stereo not drawn)
7.67 (≈ 3.13 µg/mL) | COc1cccc(C(c2ccc(OCCN3CCCCC3)cc2)c2cccs2)c1 (stereo not drawn)
25.3 (≈ 8 µg/mL) | CC(=O)OCC1=CCc2c(cc(O)c3c(=O)cc(C)oc23)OC1
3.79 (≈ 1.56 µg/mL) | Clc1ccc(C(c2ccc(OCCN3CCCCC3)cc2)c2cccs2)cc1 (stereo not drawn)
0.15 (≈ 0.0516 µg/mL) | CC(=O)c1c(O)c(C)c(O)c2c1OC1=CC(=O)C(C(C)=O)C(=O)C12C (stereo not drawn)
8.2 (≈ 3.13 µg/mL) | Fc1ccc(C(c2ccc(OCCN3CCCC3)cc2)c2cccs2)cc1 (stereo not drawn)

tested on: Mycolicibacterium fortuitum; test: Antimycobacterial activity against Mycobacterium fortuitum ATCC 6841; type: functional

SMILES | MIC [µM]
C/C=C/c1cc(OC)c2c(c1)[C@@H](C)[C@H](c1ccc(O)c(OC)c1)O2 [LICARINE A] | 0.12 (≈ 0.0392 µg/mL)
OCCCCCCCCN=C=S | 21.4 (≈ 4 µg/mL)
C/C=C/c1cc(OC)c2oc(-c3ccc(O)c(OC)c3)c(C)c2c1 | 0.15 (≈ 0.0487 µg/mL)
c1ccc2c(c1)[I+]c1ccccc1-2 [DIPHENYLENEIODONIUM CHLORIDE] | 0.4

The next lines start with the values.

MIC [µM] | SMILES
4.98 (≈ 1.56 µg/mL) | CN(C)c1ncnc(SC(=S)N2CCCC2)c1[N+](=O)[O-]
0.12 (≈ 0.0226 µg/mL) | Cc1cc(O)c2c(c1)C(=O)C=CC2=O [RAMENTACEONE]
17.5 (≈ 6.25 µg/mL) | NC(=O)c1cc([N+](=O)[O-])cc([N+](=O)[O-])c1SC(=S)N1CCCC1
45.6 (≈ 12.5 µg/mL) | CC(C)(O)[C@@H]1OC2=C(C(=O)c3ccccc3C2=O)[C@H]1O
48.8 (≈ 12.5 µg/mL) | CC(C)(O)c1cc2c(o1)C(=O)c1ccccc1C2=O [AVICEQUINONE C]
0.022 (≈ 0.01 µg/mL) | O=c1nc(N2CCN(CC3CCCCC3)CC2)sc2c([N+](=O)[O-])cc(C(F)(F)F)cc12 [MACOZINONE]
0.13 (≈ 0.0315 µg/mL) | CC1(C)CCC2=C(O1)c1ccccc1C(=O)C2=O [LAPACHONE]
2.48 (≈ 0.8 µg/mL) | N#Cc1cc([N+](=O)[O-])cnc1SC(=S)N1CCCCCC1
5.19 (≈ 1.56 µg/mL) | COc1ncnc(SC(=S)N2CCCC2)c1[N+](=O)[O-]
1.35 (≈ 0.4 µg/mL) | CCN(CC)C(=S)Sc1ncc([N+](=O)[O-])cc1C#N
5.3 (≈ 1.56 µg/mL) | N#Cc1cc([N+](=O)[O-])cnc1SC(=S)N1CCCC1
5.05 (≈ 1.56 µg/mL) | N#Cc1cc([N+](=O)[O-])cnc1SC(=S)N1CCCCC1

tested on: Mycolicibacterium fortuitum; test: Antimycobacterial activity against Mycobacterium fortuitum NCTC 10394 assessed as reduction in microbial growth incubated for 72 hrs by resazurin dye based broth microdilution method; type: functional

MIC [µM] | SMILES
5.2 | CC(C)CCn1cc(NC(=O)c2ccc3[nH]c(C(=O)Nc4cc(C(=O)Nc5ccc(C(=O)NCCN(C)C)n5C)n(CCC(C)C)c4)cc3c2)cc1C(=O)Nc1cc(C(=O)NCCN(C)C)n(C)c1
72.7 | O=c1ccc2nccc3c4ccccc4n1c23 [CANTHIN-6-ONE]
9.5 | CC(C)CCn1cc(NC(=O)c2ccc3[nH]c(C(=O)Nc4cc(C(=O)Nc5ccc(C(=O)NCCN6CCN(C)CC6)n5C)n(CCC(C)C)c4)cc3c2)cc1C(=O)Nc1cc(C(=O)NCCN2CCN(C)CC2)n(C)c1

SMILES | MIC [µM]
C[C@@H]([C@H](NC(=O)[C@H](Cc1ccc2ccccc2c1)NC(=O)N[C@@H](Cc1c[nH]c2ccccc12)C(=O)NCC(C)(C)C)C(=O)NC[C@H]1C[C@@H](O)[C@H](n2ccc(=O)[nH]c2=O)O1)N(C)C(=O)CN | 1
C[C@@H]([C@H](NC(=O)[C@H](CC1CCCCC1)NC(=O)N[C@@H](Cc1c[nH]c2ccccc12)C(=O)NCC(C)(C)C)C(=O)NC[C@H]1C[C@@H](O)[C@H](n2ccc(=O)[nH]c2=O)O1)N(C)C(=O)CN | 1
